Measured values taken from patent US9469650B2, “Melampomagnolide B derivatives” (BOARD OF TRUSTEES OF THE UNIVERSITY OF ARKANSAS, priority 2013, dated 2016).

Legend:
NCI/ADR-RES = assay: panel of 60 human tumor cell lines, growth inhibition (Ovarian Cancer); conditions: Homo sapiens; for CC50: read-out: LC50; for IC (TGI): read-out: TGI
K-562 = assay: panel of 60 human tumor cell lines, growth inhibition (Leukemia); conditions: for GI50 / CC50: Homo sapiens; for GI50: K562; for CC50: K562, read-out: LC50; for TGI / Percent Growth: K-562
HOP-62 = assay: panel of 60 human tumor cell lines, growth inhibition (Non-Small Cell Lung Cancer); conditions: Homo sapiens; for GI50: HOP-62; for CC50: HOP-62, read-out: LC50; for IC (TGI): HOP-62, read-out: TGI
HS 578T = assay: panel of 60 human tumor cell lines, growth inhibition (Breast Cancer); conditions: Homo sapiens, Hs-578T; for CC50: read-out: LC50; for IC (TGI): read-out: TGI
A498 = assay: panel of 60 human tumor cell lines, growth inhibition (Renal Cancer); conditions: Homo sapiens; for GI50: A498; for CC50: A498, read-out: LC50; for IC (TGI): A498, read-out: TGI
U251 = assay: panel of 60 human tumor cell lines, growth inhibition (CNS Cancer); conditions: Homo sapiens; for GI50: U-251; for CC50: U-251, read-out: LC50; for IC (TGI): U-251, read-out: TGI
SW-620 = assay: panel of 60 human tumor cell lines, growth inhibition (Colon Cancer); conditions: Homo sapiens; for GI50: SW-620, SW-620; for CC50: SW-620, read-out: LC50; for IC (TGI): SW-620, read-out: TGI
786-0 = assay: panel of 60 human tumor cell lines, growth inhibition (Renal Cancer); conditions: Homo sapiens; for GI50: 786-0; for CC50: 786-0, read-out: LC50; for IC (TGI): 786-0, read-out: TGI
LOX IMVI = assay: panel of 60 human tumor cell lines, growth inhibition (Melanoma); conditions: Homo sapiens; for CC50: read-out: LC50; for IC (TGI): read-out: TGI
COLO 205 = assay: panel of 60 human tumor cell lines, growth inhibition (Colon Cancer); conditions: Homo sapiens; for GI50: COLO 205; for CC50: COLO 205, read-out: LC50; for IC (TGI): COLO 205, read-out: TGI
DU-145 = assay: panel of 60 human tumor cell lines, growth inhibition (Prostate Cancer); conditions: Homo sapiens; for GI50: DU-145; for CC50: DU-145, read-out: LC50; for IC (TGI): DU-145, read-out: TGI
NCI-H226 = assay: panel of 60 human tumor cell lines, growth inhibition (Non-Small Cell Lung Cancer); conditions: Homo sapiens; for GI50: NCI-H226; for CC50: NCI-H226, read-out: LC50
SF-295 = assay: panel of 60 human tumor cell lines, growth inhibition (CNS Cancer); conditions: Homo sapiens; for GI50: SF-295; for CC50: SF-295, read-out: LC50; for IC (TGI): SF-295, read-out: TGI
NCI-H522 = assay: panel of 60 human tumor cell lines, growth inhibition (Non-Small Cell Lung Cancer); conditions: Homo sapiens; for GI50: NCI-H522; for CC50: NCI-H522, read-out: LC50; for IC (TGI): NCI-H522, read-out: TGI
OVCAR-5 = assay: panel of 60 human tumor cell lines, growth inhibition (Ovarian Cancer); conditions: Homo sapiens; for GI50: OVCAR-5; for CC50: OVCAR-5, read-out: LC50; for IC (TGI): OVCAR-5, read-out: TGI
PC-3 = assay: panel of 60 human tumor cell lines, growth inhibition (Prostate Cancer); conditions: Homo sapiens; for GI50: PC-3; for CC50: PC-3, read-out: LC50; for IC (TGI): PC-3, read-out: TGI
CAKI-1 = assay: panel of 60 human tumor cell lines, growth inhibition (Renal Cancer); conditions: Homo sapiens; for GI50: CAKI-1; for CC50: CAKI-1, read-out: LC50; for IC (TGI): CAKI-1, read-out: TGI
M14 = assay: panel of 60 human tumor cell lines, growth inhibition (Melanoma); conditions: Homo sapiens; for GI50: M14; for CC50: M14, read-out: LC50; for IC (TGI): M14, read-out: TGI
SF-268 = assay: panel of 60 human tumor cell lines, growth inhibition (CNS Cancer); conditions: Homo sapiens; for GI50: SF-268; for CC50: SF-268, read-out: LC50; for IC (TGI): SF-268, read-out: TGI

`C=C1C(=O)O[C@H]2[C@H]1CC/C(COC(=O)OCCCN1CCCCC1)=C\CC[C@@]1(C)O[C@@H]21` [JVM 2-26] was tested, and the GI50 (NCI/ADR-RES) was 17.2 µM, the CC50 (NCI/ADR-RES) was greater than 100 µM and the IC (TGI) (NCI/ADR-RES) was 45.8 µM. The GI50 (K-562) was 3.27 µM, the CC50 (K-562) was greater than 100 µM and the TGI (K-562) was 1.52E−5. For the same compound, the “Percent Growth” value (K-562; Log10 Concentration −4.0) was −42%, the “Percent Growth” value (K-562; Log10 Concentration −5.0) was 9% and the “Percent Growth” value (K-562; Log10 Concentration −6.0) was 93%. For the same compound, the “Percent Growth” value (K-562; Log10 Concentration −7.0) was 96. %, the “Percent Growth” value (K-562; Log10 Concentration −8.0) was 100% and the GI50 (HOP-62) was 15.3 µM. The CC50 (HOP-62) was 57.7 µM, the IC (TGI) (HOP-62) was 19.8 µM and the GI50 (HS 578T) was 4.96 µM. For the same compound, the CC50 (HS 578T) was greater than 100 µM, the IC (TGI) (HS 578T) was 26.8 µM and the GI50 (A498) was 10.1 µM. The CC50 (A498) was 47 µM, the IC (TGI) (A498) was 21.8 µM and the GI50 (U251) was 16.7 µM. The CC50 (U251) was 62.7 µM, the IC (TGI) (U251) was 32.4 µM and the GI50 (SW-620) was 2.23 µM. The CC50 (SW-620) was 37.3 µM, the IC (TGI) (SW-620) was 8.74 µM and the GI50 (786-0) was 2.48 µM. The CC50 (786-0) was 37.3 µM, the IC (TGI) (786-0) was 11.1 µM and the GI50 (LOX IMVI) was 3.15 µM. The CC50 (LOX IMVI) was 37.8 µM, the IC (TGI) (LOX IMVI) was 11.7 µM and the GI50 (COLO 205) was 1.7 µM. The CC50 (COLO 205) was 7.07 µM, the IC (TGI) (COLO 205) was 3.47 µM and the GI50 (DU-145) was 3.19 µM. The CC50 (DU-145) was 35.3 µM, the IC (TGI) (DU-145) was 12.5 µM and the GI50 (NCI-H226) was 4.43 µM. For the same compound, the CC50 (NCI-H226) was 79.8 µM, the GI50 (SF-295) was 15.4 µM and the CC50 (SF-295) was 73.2 µM. For the same compound, the IC (TGI) (SF-295) was 33.5 µM, the GI50 (NCI-H522) was 1.41 µM and the CC50 (NCI-H522) was 7.24 µM. For the same compound, the IC (TGI) (NCI-H522) was 3.2 µM, the GI50 (OVCAR-5) was 10.1 µM and the CC50 (OVCAR-5) was 50.9 µM. It also gave an IC (TGI) (OVCAR-5) of 22.7 µM, a GI50 (PC-3) of 12.7 µM and a CC50 (PC-3) of 56.2 µM. It also gave an IC (TGI) (PC-3) of 16.7 µM, a GI50 (CAKI-1) of 2.19 µM and a CC50 (CAKI-1) of 34.5 µM. For the same compound, the IC (TGI) (CAKI-1) was 11.9 µM, the GI50 (M14) was 3.85 µM and the CC50 (M14) was 41.1 µM. It also gave an IC (TGI) (M14) of 15.5 µM, a GI50 (SF-268) of 6.14 µM and a CC50 (SF-268) of 53.2 µM. For the same compound, the IC (TGI) (SF-268) was 20.6 µM.
Compound `C=C1C(=O)O[C@H]2[C@H]1CC/C(COC(=O)NCCCCCCO)=C\CC[C@@]1(C)O[C@@H]21` [JVM 2-31] has a GI50 (NCI/ADR-RES) of 28.1 µM, a CC50 (NCI/ADR-RES) greater than 100 µM and an IC (TGI) (NCI/ADR-RES) greater than 100 µM. The GI50 (K-562) was 4.96 µM, the CC50 (K-562) was greater than 100 µM and the “Percent Growth” value (K-562; Log10 Concentration −4.0) was −33%. The “Percent Growth” value (K-562; Log10 Concentration −5.0) was 28%, the “Percent Growth” value (K-562; Log10 Concentration −6.0) was 101% and the “Percent Growth” value (K-562; Log10 Concentration −7.0) was 113%. For the same compound, the “Percent Growth” value (K-562; Log10 Concentration −8.0) was 102%, the TGI (K-562; NCI five dose) was 2.88E−5 and the GI50 (HOP-62) was 19.6 µM. The CC50 (HOP-62) was 86.7 µM, the IC (TGI) (HOP-62) was 41.2 µM and the GI50 (HS 578T) was 3.92 µM. For the same compound, the CC50 (HS 578T) was greater than 100 µM, the IC (TGI) (HS 578T) was 85.7 µM and the GI50 (A498) was 12.5 µM. It also gave a CC50 (A498) of 53.4 µM, an IC (TGI) (A498) of 25.9 µM and a GI50 (U251) of 17.4 µM. For the same compound, the CC50 (U251) was 63.7 µM, the IC (TGI) (U251) was 33.3 µM and the GI50 (SW-620; NCI five dose) was 2.93 µM. For the same compound, the CC50 (SW-620) was 74 µM, the IC (TGI) (SW-620) was 13.3 µM and the GI50 (786-0) was 2.99 µM. For the same compound, the CC50 (786-0) was 43.7 µM, the IC (TGI) (786-0) was 13.1 µM and the GI50 (LOX IMVI; NCI five dose) was 3.45 µM. For the same compound, the CC50 (LOX IMVI) was 42.1 µM, the IC (TGI) (LOX IMVI) was 13.1 µM and the GI50 (COLO 205) was 2.56 µM. It also gave a CC50 (COLO 205) of 32 µM, an IC (TGI) (COLO 205) of 6.39 µM and a GI50 (DU-145) of 3.68 µM. For the same compound, the CC50 (DU-145) was 39.4 µM, the IC (TGI) (DU-145) was 14.3 µM and the GI50 (NCI-H226) was 4.92 µM. The CC50 (NCI-H226) was 87.2 µM, the IC (TGI) (NCI-H226; NCI-H226, read-out: TGI) was 23.9 µM and the GI50 (SF-295) was 14.8 µM. It also gave a CC50 (SF-295) of 85.8 µM, an IC (TGI) (SF-295) of 35.7 µM and a GI50 (NCI-H522) of 1.7 µM. The CC50 (NCI-H522) was 8.15 µM, the IC (TGI) (NCI-H522) was 3.72 µM and the GI50 (OVCAR-5) was 13.4 µM. It also gave a CC50 (OVCAR-5) of 64.1 µM, an IC (TGI) (OVCAR-5) of 29.3 µM and a GI50 (PC-3) of 13.3 µM. The CC50 (PC-3) was 64.1 µM, the IC (TGI) (PC-3) was 29.2 µM and the GI50 (CAKI-1) was 3.44 µM. For the same compound, the CC50 (CAKI-1) was 40.2 µM, the IC (TGI) (CAKI-1) was 15.5 µM and the GI50 (M14) was 4.5 µM. It also gave a CC50 (M14) of 46.7 µM, an IC (TGI) (M14) of 17.4 µM and a GI50 (SF-268) of 8.59 µM. For the same compound, the CC50 (SF-268) was 73 µM and the IC (TGI) (SF-268) was 26 µM.
